The record followed here is patent US20140349970A1 (ABBVIE INC., priority 2009, published 2014).

The structures appear in SMILES notation.

In one experiment the target is T1, Syk catalytic domain (aa 356-635 with a C-terminal His-tag) (Homo sapiens, UniProt P43405).
T1 construct: His-tag (C); made in house
As to the kind of experiment: In vitro Syk kinase activity measured by trFRET, Syk catalytic domain. It counts as biochemical.
Settings: not given
The method, then:
In Vitro Syk Kinase Activity Measured by Time-Resolved Fluorescence Resonance Energy Transfer (trFRET)
0.14 nM purified Syk catalytic domain (aa 356-635 with a C-terminal His-tag purified in-house by immobilized metal ion affinity chromatography) was mixed with 0.2 μM peptide substrate (biotin-TYR1, Sequence: Biotin-(Ahx)-GAEEEIYAAFFA-COOH) at varying inhibitor concentrations in reaction buffer: 50 mM MOPSO pH 6.5, 10 mM MgCl2, 2 mM MnCl2, 2.5 mM DTT, 0.01% BSA, 0.1 mM Na3VO4 and 0.001 mM ATP. After about 60 min incubation at rt, the reaction was quenched by addition of EDTA (final concentration: 100 mM) and developed by addition of revelation reagents (final approximate concentrations: 30 mM HEPES pH 7.0, 0.06% BSA, 0.006% Tween-20, 0.24 M KF, 80 ng/mL PT66K (europium labeled anti-phosphotyrosine antibody cat #61T66KLB Cisbio, Bedford, Mass.) and 0.6 μg/mL SAXL (Phycolink streptavidin-allophycocyanin acceptor, cat #PJ255, Prozyme, San Leandro, Calif.). The developed reaction was incubated in the dark either at about 4° C. for about 14 h or for about 60 min at rt, then read via a time-resolved fluorescence detector (Rubystar, BMG) using a 337 nm laser for excitation and monitoring emission wavelengths at 665 nm. Within the linear range of the assay, the observed signal at 665 nm was directly related to phosphorylated product and can be used to calculate the IC50 values.
MOPSO buffer contains: 50 mM MOPSO pH 6.5, 10 mM MgCl2, 2 mM MnCl2, 2.5 mM DTT, 0.01% BSA, and 0.1 mM Na3VO4 HEPES buffer contains: 50 mM HEPES pH 7.1, 2.5 mM DTT, 10 mM MgCl2, 2 mM MnCl2, 0.01% BSA, and 0.1 mM Na3VO4 MOPS buffer contains: 20 mM MOPS pH 7.2, 10 mM MgCl2, 5 mM EGTA, 5 mM Beta-phosphoglycerol, 1 mM Na3VO4, 0.01% Triton-X-100 and 1 mM DTT
Biotin-TYR1-peptide sequence: Biotin-(Ahx)-GAEEEIYAAFFA-COOH Biotin-TYR2-peptide sequence: Biotin-(Ahx)-AEEEYFFLFA-amide KinEASE 51 peptides were purchased from Cisbio (cat #62ST0PEB, Bedford, Mass.)
PT66K was purchased from Cisbio (cat #61T66KLB, Bedford, Mass.) EuSTK was purchased from Cisbio (cat #62ST0PEB, Bedford, Mass.) SAXL was purchased from Prozyme (cat #PJ25S, San Leandro, Calif.) Human T-Blasts IL-2 pSTAT5 Cellular Assay
On to `CCc1c(-c2ccc(C(C)(C)N)cc2)[nH]c2ncc3cnn(C)c3c12` [P.3.1.3], for which the IC50 lay within 100 to 1000 nM. For `COc1ccc(-c2nc([C@@H]3CC[C@H](N)C3)n3c2cnc2[nH]ccc23)cc1` [P.3.1.2], the IC50 was 100 to 1000 nM. On the same count and under the same terms, under `Cc1nc(-c2ccc(CC(C)(C)O)cc2)c2cnc3[nH]ccc3n12` [AC.1.35] stands 100 to 1000 nM; under `Cn1ncc2cnc3[nH]c(-c4ccc[nH]4)cc3c21` [T.3.1.2], 100 to 1000 nM; under `COc1ccc(-c2nc(C)n3c2cnc2[nH]ccc23)c(Cl)c1` [AC.1.19], 1000 to 10000 nM. Still for that read-out and setting: under `Cn1ncc2cnc3[nH]c(-c4cccn4CC(=O)O)cc3c21` [AN.1.2, 2-(2-(1-methyl-1,6-dihydropyrazolo[3,4-d]pyrrolo[2,3-b]pyridin-7-yl)-1H-pyrrol-1-yl)acetic acid] stands > 10000 nM; under `COc1cc(-c2ncn3c2cnc2[nH]ccc23)ccn1` [AC.4.3], 100 to 1000 nM; under `Cc1nc(-c2ccc(S(=O)(=O)N(C)C)cc2)c2cnc3[nH]ccc3n12` [AC.1.10], 100 to 1000 nM.

In the case of `Cc1nc(-c2cccc(S(C)(=O)=O)c2)c2cnc3[nH]ccc3n12` [AC.1.39], the half-maximal inhibitory concentration (IC50) was 100 to 1000 nM. `COCCNC(=O)c1ccc(-c2nc(C3CCCCC3)n3c2cnc2[nH]ccc23)cc1` [AC.3.17]: the IC50 is 100 to 1000 nM. Same read-out and setting: under `CN(C)CCNC(=O)c1ccc(-c2nc(C3CCCCC3)n3c2cnc2[nH]ccc23)cc1` [AC.3.26] stands 100 to 1000 nM; under `Cn1nc(-c2ccc(S(C)(=O)=O)cc2)c2cnc3[nH]ccc3c21` [AR.1.1], 100 to 1000 nM. Take `CC(C)(CO)c1ccc(-c2ncn3c2cnc2[nH]ccc23)cc1` [AC.4.1]: the IC50 is < 100 nM. Same read-out and setting: under `CCc1c(-c2ccc(C(C)(C)O)cc2)[nH]c2ncc3cnnn3c12` [S.1.8] stands < 100 nM.

`COc1ccc(-c2nc(C)n3c2cnc2[nH]ccc23)c(OC)c1` [AC.1.1] came in with an IC50 of 1000 to 10000 nM. Same read-out and setting: for `CC(C)(N)CCc1nc(-c2ccc(C(C)(C)O)cc2)c2cnc3[nH]ccc3n12` [T.4.1.3] the value was 100 to 1000 nM; for `CC(=O)Nc1cccc(-c2nc(C3CCCCC3)n3c2cnc2[nH]ccc23)c1` [AC.3.3], 100 to 1000 nM. `COc1ccc(-c2nc([C@H]3CCC[C@@H](N)C3)n3c2cnc2[nH]ccc23)cc1` [T.3.1.3] showed an IC50 of 100 to 1000 nM.

Consider `COc1c(C)cc(-c2nc(C)n3c2cnc2[nH]ccc23)cc1C` [AC.1.25], for which the IC50 was < 100 nM.

On to `COc1cnc2c(c1)c(-c1cc3c(ncc4cnn(C)c43)[nH]1)cn2C` [AC.2.2], for which the half-maximal inhibitory concentration (IC50) is < 100 nM. On the same count and under the same terms, under `CCc1c(-c2ccc(C(C)(C)O)cc2)[nH]c2ncc3cnc(N(C)C)n3c12` [S.1.2] stands 100 to 1000 nM; under `Cc1nc(-c2ccc(OCC(=O)O)cc2)c2cnc3[nH]ccc3n12` [AC.1.16], 100 to 1000 nM.

The compound `CCCNC(=O)c1cccc(-c2nc(C)n3c2cnc2[nH]ccc23)c1` [AC.1.4] returned an IC50 of 100 to 1000 nM.

The same experiment, now with this note: Syk catalytic domain (aa 356-635), trFRET, 0.001 mM ATP.
As to `CN(C)C(=O)c1ccc2c(-c3cc4c(ncc5cnn(C)c54)[nH]3)cn(C)c2c1` [J.1.4.1], the IC50 was < 100 nM. For the compound `COc1ccc(-c2cc3c(ncc4cnn(C)c43)[nH]2)cc1` [N.1.14], the IC50 was < 100 nM.

Consider `CC(C)(O)c1ccc(-c2nc(-c3cccnc3C#N)n3c2cnc2[nH]ccc23)cc1` [D.3.1], for which the IC50 was < 100 nM.

`CCc1c(-c2ccc(N3CCOCC3)cc2)[nH]c2ncc3cnn(C)c3c12` [N.1.31] showed an IC50 of 100 to 1000 nM. `CCc1c[nH]c2ncc3c(-c4ccsc4)nn(C)c3c12` [N.1.73] had a 50% inhibitory concentration (IC50) of 100 to 1000 nM. `Cn1ncc2cnc3[nH]c(-c4ccc5ncccc5c4)cc3c21` [N.2.7] yielded an IC50 of 100 to 1000 nM. Same read-out and setting: for `COc1ccc2c(n1)c(-c1cc3c(ncc4cnn(C)c43)[nH]1)cn2C` [N.1.116] the value was 100 to 1000 nM; for `CCc1c(-c2ccc(OCCN3CCOCC3)cc2)[nH]c2ncc3cnn(C)c3c12` [N.1.45], 100 to 1000 nM.

With `CC(=O)NCc1nc(-c2ccc(C(C)(C)O)cc2)c2cnc3[nH]ccc3n12` [J.2.1.8], the IC50 was 100 to 1000 nM. Regarding `Cc1nc(-c2ccc(C(C)(C)O)cc2)c2cnc3[nH]cc(Br)c3n12` [AY.1, 2-(4-(8-Bromo-1-methyl-6H-imidazo[1,5-a]pyrrolo[2,3-e]pyrazin-3-yl)phenyl)propan-2-ol], the IC50 is < 100 nM. On the same count and under the same terms, under `CN1CCN(C(=O)CCO)C[C@@H]1c1nc(-c2ccc(C(C)(C)O)cc2)c2cnc3[nH]ccc3n12` [N.1.95] stands 100 to 1000 nM. On the same count and under the same terms, under `C=C(C)c1ccc(-c2nc(C3CC[C@H](NS(=O)(=O)C4CC4)C3)n3c2cnc2[nH]ccc23)cc1` (stereo partly drawn) [N.1.52] stands 100 to 1000 nM. Take `Cn1cc(-c2cc3c(ncc4cnn(C)c43)[nH]2)c2cc(C(=O)NCCO)ccc21` [J.1.8.7]: the IC50 is < 100 nM. Turning to `Cn1ncc2cnc3[nH]c(-c4cccc(CN)c4)cc3c21` [T.3.1, (3-(1-Methyl-1,6-dihydropyrazolo[3,4-d]pyrrolo[2,3-b]pyridin-7-yl)phenyl)methanamine], the half-maximal inhibitory concentration (IC50) lay in the range of 1000 to 10000 nM. As for `CS(=O)(=O)c1ccc(-c2ncn3c2cnc2[nH]ccc23)cc1` [N.1.90], the concentration for half-maximal inhibition (IC50) is < 100 nM. The same measure, in the same setting: under `CCc1c(-c2cccc(S(=O)(=O)N(CC)CC)c2)[nH]c2ncc3cnn(C)c3c12` [N.1.40] stands 1000 to 10000 nM; under `COCCCc1ncc2cnc3[nH]c(-c4cn(C)c5ccc(OC)cc45)cc3n12` [M.1.14], < 100 nM.

In turn, `COc1ccc2c(c1)c(-c1cc3c(ncc4nccn43)[nH]1)cn2C` [M.1.20] came in with an IC50 of 100 to 1000 nM.

Consider `CC(C)(O)c1ccc(-c2nc(-c3cccnc3C#N)n3c2cnc2[nH]ccc23)cc1` [Example 6, 3-(3-(4-(2-Hydroxypropan-2-yl)phenyl)-6H-imidazo[1,5-a]pyrrolo[2,3-e]pyrazin-1-yl)picolinonitrile], for which the concentration for half-maximal inhibition (IC50) lay within 1000 to 10000 nM. On the same count and under the same terms, under `Cn1cc(-c2cc3c(ncc4cnn(C)c43)[nH]2)c2cnccc21` [N.1.100] stands 100 to 1000 nM; under `CC(=O)N1CC=C(c2ncn3c2cnc2[nH]ccc23)CC1` [J.2.1.5], 1000 to 10000 nM; under `CCc1c(-c2cn(C)nc2C)[nH]c2ncc3cnn(C)c3c12` [N.1.37], 1000 to 10000 nM. Regarding `CCc1c(-c2cnn(C)c2)[nH]c2ncc3cnn(C)c3c12` [N.1.44], the IC50 fell in the range of 100 to 1000 nM. Same read-out and setting: under `Cn1cc(-c2cc3c(ncc4cnn(C)c43)[nH]2)c2cc(C(=O)NS(C)(=O)=O)ccc21` [Example 8, 1-Methyl-3-(1-methyl-1,6-dihydropyrazolo[3,4-d]pyrrolo[2,3-b]pyridin-7-yl)-N-(methylsulfonyl)-1H-indole-5-carboxamide] stands < 100 nM; under `CCc1c(-c2cnn(C)c2C)[nH]c2ncc3cnn(C)c3c12` [N.1.38], 1000 to 10000 nM; under `COc1ccc(-c2cc3c(ncc4cnc(C)n43)[nH]2)cc1` [M.1.25], < 100 nM. The same measure, in the same setting: for `COc1ccc(-c2nc(C3CCN(C)CC3)n3c2cnc2[nH]ccc23)cc1` [N.1.86] the value was 1000 to 10000 nM. Same read-out and setting: under `CS(=O)(=O)c1cccc(-c2cc3c(ncc4cnc(C5CCCOC5)n43)[nH]2)c1` (stereo not drawn) [M.1.5] stands 100 to 1000 nM; under `COc1ccc(-c2nc([C@H]3CCC[C@@H](NC(C)=O)C3)n3c2cnc2[nH]ccc23)cc1` [J.2.1.7], 100 to 1000 nM. With `COc1ccc2c(c1)c(-c1cc3c(ncc4cnc(CCCO)n43)[nH]1)cn2C` [M.1.7], the IC50 is < 100 nM.

On to `COc1ccc2c(c1)c(-c1cc3c(ncc4cnc([C@@H]5CC[C@H](NC(C)=O)C5)n43)[nH]1)cn2C` [J.2.1.9], for which the IC50 is < 100 nM.
